Assay results from patent US9730940B2, “Purine inhibitors of human phosphatidylinositol 3-kinase delta” (priority 2012, dated 2017).

Molecular target: PI3K-alpha (Homo sapiens (Human), UniProt P42336)
Test: HTRF PI3K biochemical assay, alpha isoform
Details: ratio PI3K-alpha IC50 value/PI3K-delta IC50 value

Chain of PI3K-alpha (P42336 whole entry, looked up, canonical isoform): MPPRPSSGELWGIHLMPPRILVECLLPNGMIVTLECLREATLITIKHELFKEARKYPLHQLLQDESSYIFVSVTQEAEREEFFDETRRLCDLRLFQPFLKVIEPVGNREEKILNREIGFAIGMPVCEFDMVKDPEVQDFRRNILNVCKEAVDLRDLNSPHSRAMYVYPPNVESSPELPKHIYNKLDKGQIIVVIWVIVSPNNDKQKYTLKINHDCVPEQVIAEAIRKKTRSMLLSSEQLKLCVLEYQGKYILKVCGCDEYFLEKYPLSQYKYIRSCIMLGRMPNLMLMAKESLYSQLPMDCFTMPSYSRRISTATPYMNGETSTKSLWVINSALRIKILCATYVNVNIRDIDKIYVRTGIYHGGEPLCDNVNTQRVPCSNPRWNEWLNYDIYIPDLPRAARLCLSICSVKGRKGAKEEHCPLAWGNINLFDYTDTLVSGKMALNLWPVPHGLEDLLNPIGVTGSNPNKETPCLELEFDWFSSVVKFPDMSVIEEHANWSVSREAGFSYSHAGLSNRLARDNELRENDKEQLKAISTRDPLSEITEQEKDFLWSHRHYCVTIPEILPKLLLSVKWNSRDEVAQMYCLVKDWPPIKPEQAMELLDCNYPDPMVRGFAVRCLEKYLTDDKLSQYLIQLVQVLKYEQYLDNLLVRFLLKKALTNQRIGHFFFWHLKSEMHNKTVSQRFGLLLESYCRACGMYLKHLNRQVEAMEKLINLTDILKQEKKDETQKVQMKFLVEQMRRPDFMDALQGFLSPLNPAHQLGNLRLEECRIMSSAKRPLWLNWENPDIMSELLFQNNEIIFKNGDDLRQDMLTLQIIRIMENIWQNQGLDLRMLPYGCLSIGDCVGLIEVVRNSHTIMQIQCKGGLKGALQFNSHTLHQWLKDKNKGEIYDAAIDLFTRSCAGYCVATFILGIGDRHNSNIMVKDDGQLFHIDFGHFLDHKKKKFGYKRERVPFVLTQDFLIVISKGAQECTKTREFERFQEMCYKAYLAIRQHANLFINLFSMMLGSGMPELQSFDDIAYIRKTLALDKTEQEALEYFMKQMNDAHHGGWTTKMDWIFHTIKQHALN
Chain of PI3K-alpha (P27986 whole entry partner, looked up, canonical isoform): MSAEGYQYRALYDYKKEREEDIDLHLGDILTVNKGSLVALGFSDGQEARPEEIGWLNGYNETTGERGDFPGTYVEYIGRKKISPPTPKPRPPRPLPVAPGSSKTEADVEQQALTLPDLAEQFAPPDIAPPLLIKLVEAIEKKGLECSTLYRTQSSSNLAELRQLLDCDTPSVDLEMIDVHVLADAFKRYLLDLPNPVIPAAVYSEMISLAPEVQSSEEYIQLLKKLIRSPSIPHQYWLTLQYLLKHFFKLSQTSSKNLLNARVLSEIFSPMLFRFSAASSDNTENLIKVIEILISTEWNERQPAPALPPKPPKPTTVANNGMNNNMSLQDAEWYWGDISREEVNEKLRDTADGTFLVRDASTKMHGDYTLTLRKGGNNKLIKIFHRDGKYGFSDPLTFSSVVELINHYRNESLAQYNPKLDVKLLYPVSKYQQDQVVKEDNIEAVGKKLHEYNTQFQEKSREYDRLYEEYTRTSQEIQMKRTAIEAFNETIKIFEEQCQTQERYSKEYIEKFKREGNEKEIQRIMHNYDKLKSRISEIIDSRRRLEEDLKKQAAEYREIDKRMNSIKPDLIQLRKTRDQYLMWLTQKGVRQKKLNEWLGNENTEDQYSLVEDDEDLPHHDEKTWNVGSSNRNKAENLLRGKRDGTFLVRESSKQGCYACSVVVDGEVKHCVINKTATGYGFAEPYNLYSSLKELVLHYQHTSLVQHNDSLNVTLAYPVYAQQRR

Row | SMILES | Relative Selectivity versus PI3Kalpha
1 | CCn1ncc(-c2nc3c(O[C@H]4CCN(C(=O)C5CC(=O)N(C(C)C)C5)C4)ncnc3n2C)c1C (stereo partly drawn) [Compound 2-77, 4-{[(3S)-3-{[8-(1-ethyl-5-methyl-1H-pyrazol-4-yl)-9-methyl-9H-purin-6-yl]oxy}pyrrolidin-1-yl]carbonyl}-1-(1-methylethyl)pyrrolidin-2-one] | >10
2 | CCn1ncc(-c2nc3c(O[C@H]4CCN(C(=O)c5cc(C)n(C)c5C)C4)ncnc3n2C)c1C [Compound 2-79, 8-(1-ethyl-5-methyl-1H-pyrazol-4-yl)-9-methyl-6-({(3S)-1-[(1,2,5-trimethyl-1H-pyrrol-3-yl)carbonyl]pyrrolidin-3-yl}oxy)-9H-purine] | >10
3 | CCn1ncc(-c2nc3c(O[C@H]4CCN(C(=O)c5cnn(C)c5)C4)ncnc3n2C)c1C [Compound 2-80, 8-(1-ethyl-5-methyl-1H-pyrazol-4-yl)-9-methyl-6-({(3S)-1-[(1-methyl-1H-pyrazol-4-yl)carbonyl]pyrrolidin-3-yl}oxy)-9H-purine] | 6
4 | CCn1ncc(-c2nc3c(O[C@H]4CCN(C(=O)c5nnc(C)o5)C4)ncnc3n2C)c1C [Compound 2-81, 8-(1-ethyl-5-methyl-1H-pyrazol-4-yl)-9-methyl-6-({(3S)-1-[(5-methyl-1,3,4-oxadiazol-2-yl)carbonyl]pyrrolidin-3-yl}oxy)-9H-purine] | 5
5 | CCn1ncc(-c2nc3c(O[C@H]4CCN(C(=O)C5CCc6nnnn65)C4)ncnc3n2C)c1C (stereo partly drawn) [Compound 2-84, 6-{[(3S)-1-(6,7-dihydro-5H-pyrrolo[1,2-d]tetrazol-5-ylcarbonyl)pyrrolidin-3-yl]oxy}-8-(1-ethyl-5-methyl-1H-pyrazol-4-yl)-9-methyl-9H-purine (non-preferred name)] | >10
6 | CCc1nc(C)c(C(=O)N2CC[C@H](Oc3ncnc4c3nc(-c3cnn(CC)c3C)n4C)C2)o1 [Compound 2-86, 6-({(3S)-1-[(2-ethyl-4-methyl-1,3-oxazol-5-yl)carbonyl]pyrrolidin-3-yl}oxy)-8-(1-ethyl-5-methyl-1H-pyrazol-4-yl)-9-methyl-9H-purine] | >10
7 | CCn1ncc(-c2nc3c(O[C@H]4CCN(C(=O)c5cnoc5C(C)C)C4)ncnc3n2C)c1C [Compound 2-87, 8-(1-ethyl-5-methyl-1H-pyrazol-4-yl)-9-methyl-6-{[(3S)-1-{[5-(1-methylethyl)isoxazol-4-yl]carbonyl}pyrrolidin-3-yl]oxy}-9H-purine] | >10
8 | CCn1ncc(-c2nc3c(O[C@H]4CCN(C(=O)c5cocn5)C4)ncnc3n2C)c1C [Compound 2-88, 8-(1-ethyl-5-methyl-1H-pyrazol-4-yl)-9-methyl-6-{[(3S)-1-(1,3-oxazol-4-ylcarbonyl)pyrrolidin-3-yl]oxy}-9H-purine] | >10
9 | CCC(=O)N1CC[C@H](Oc2ncnc3c2nc(-c2cnc(OC)c(C)c2)n3CC)C1 [Compound 2-89, (S)-1-(3-((9-ethyl-8-(6-methoxy-5-methylpyridin-3-yl)-9H-purin-6-yl)oxy)pyrrolidin-1-yl)propan-1-one] | >10
10 | CCn1ncc(-c2nc3c(O[C@H]4CCN(C(C)=O)C4)ncnc3n2C)c1C [Compound 2-90, (S)-1-(3-((8-(1-ethyl-5-methyl-1H-pyrazol-4-yl)-9-methyl-9H-purin-6-yl)oxy)pyrrolidin-1-yl)ethanone] | >10
11 | CCn1ncc(-c2nc3c(O[C@H]4CCN(C(=O)C(C)C)C4)ncnc3n2C)c1C [Compound 2-91, (S)-1-(3-((8-(1-ethyl-5-methyl-1H-pyrazol-4-yl)-9-methyl-9H-purin-6-yl)oxy)pyrrolidin-1-yl)-2-methylpropan-1-one] | >10
12 | CCn1ncc(-c2nc3c(O[C@H]4CCN(C(=O)C(C)(C)C)C4)ncnc3n2C)c1C [Compound 2-92, (S)-1-(3-((8-(1-ethyl-5-methyl-1H-pyrazol-4-yl)-9-methyl-9H-purin-6-yl)oxy)pyrrolidin-1-yl)-2,2-dimethylpropan-1-one] | >10
13 | CCC(=O)N1CC[C@H](Oc2ncnc3c2nc(-c2cnn(CC)c2C)n3CC)C1 [Compound 2-93, (S)-1-(3-((9-ethyl-8-(1-ethyl-5-methyl-1H-pyrazol-4-yl)-9H-purin-6-yl)oxy)pyrrolidin-1-yl)propan-1-one] | >10
14 | CCC(=O)N1CC[C@H](Oc2ncnc3c2nc(-c2cnc(OC)c(C)c2)n3C)C1 [Compound 2-94, (S)-1-(3-((8-(6-methoxy-5-methylpyridin-3-yl)-9-methyl-9H-purin-6-yl)oxy)pyrrolidin-1-yl)propan-1-one] | >10
15 | CCC(=O)N1CC[C@H](Oc2ncnc3c2nc(-c2cnc(C(C)(C)C)s2)n3CC)C1 [Compound 2-95, (S)-1-(3-((8-(2-(tert-butyl)thiazol-5-yl)-9-ethyl-9H-purin-6-yl)oxy)pyrrolidin-1-yl)propan-1-one] | >10
16 | CCC(=O)N1CC[C@H](Oc2ncnc3c2nc(-c2cnc(C(C)(C)C)s2)n3C)C1 [Compound 2-96, (S)-1-(3-((8-(2-(tert-butyl)thiazol-5-yl)-9-methyl-9H-purin-6-yl)oxy)pyrrolidin-1-yl)propan-1-one] | >10

Row | SMILES | Relative Selectivity versus PI3Kalpha
17 | CCC(=O)N1CC[C@H](Oc2ncnc3c2nc(-c2cnn(CC)c2C)n3C2CC2)C1 [Compound 2-97, (S)-1-(3-((9-cyclopropyl-8-(1-ethyl-5-methyl-1H-pyrazol-4-yl)-9H-purin-6-yl)oxy)pyrrolidin-1-yl)propan-1-one] | >10
18 | CCn1c(-c2cnc(C)nc2)nc2c(O[C@H]3CCN(C(=O)C4CC4)[C@@H]3C)ncnc21 [Compound 2-98, 6-{[(2R,3S)-1-(cyclopropylcarbonyl)-2-methylpyrrolidin-3-yl]oxy}-9-ethyl-8-(2-methylpyrimidin-5-yl)-9H-purine] | >10
19 | CCn1c(-c2cnc(C)nc2)nc2c(OC3CN(C(=O)C4CC4)CC3(F)F)ncnc21 (stereo not shown) [Compound 2-99, 6-{[1-(cyclopropylcarbonyl)-4,4-difluoropyrrolidin-3-yl]oxy}-9-ethyl-8-(2-methylpyrimidin-5-yl)-9H-purine] | >10
20 | CCn1c(-c2cnc(C)nc2)nc2c(O[C@H]3CCN(C(=O)[C@@H]4CCC[C@H]4N)C3)ncnc21 [Compound 2-101, (1R,2R)-2-{[(3S)-3-{[9-ethyl-8-(2-methylpyrimidin-5-yl)-9H-purin-6-yl]oxy}pyrrolidin-1-yl]carbonyl}cyclopentanamine] | >10
21 | CCn1c(-c2cnc(C)nc2)nc2c(O[C@H]3CCN(C(=O)C4CNC4)C3)ncnc21 [Compound 2-102, 6-{[(3S)-1-(azetidin-3-ylcarbonyl)pyrrolidin-3-yl]oxy}-9-ethyl-8-(2-methylpyrimidin-5-yl)-9H-purine] | >10
22 | CCn1c(-c2cnc(C)nc2)nc2c(O[C@H]3CCN(C(=O)[C@H]4CCC[C@H]4N)C3)ncnc21 [Compound 2-103, (1R,2S)-2-{[(3S)-3-{[9-ethyl-8-(2-methylpyrimidin-5-yl)-9H-purin-6-yl]oxy}pyrrolidin-1-yl]carbonyl}cyclopentanamine] | >10
23 | CCn1c(-c2cnc(C)nc2)nc2c(O[C@H]3CCN(C(=O)[C@@H]4CN5CC[C@H]4C5)C3)ncnc21 [Compound 2-104, 6-({(3S)-1-[(3S,4R)-1-azabicyclo[2.2.1]hept-3-ylcarbonyl]pyrrolidin-3-yl}oxy)-9-ethyl-8-(2-methylpyrimidin-5-yl)-9H-purine] | >10
24 | CCn1ncc(-c2nc3c(O[C@H]4CCN(C(=O)C5CCC5)C4)ncnc3n2C)c1C [Compound 2-105, 6-{[(3S)-1-(cyclobutylcarbonyl)pyrrolidin-3-yl]oxy}-8-(1-ethyl-5-methyl-1H-pyrazol-4-yl)-9-methyl-9H-purine] | >10
25 | CCn1ncc(-c2nc3c(O[C@H]4CCN(C(=O)C5CC(F)(F)C5)C4)ncnc3n2C)c1C [Compound 2-106, 6-({(3S)-1-[(3,3-difluorocyclobutyl)carbonyl]pyrrolidin-3-yl}oxy)-8-(1-ethyl-5-methyl-1H-pyrazol-4-yl)-9-methyl-9H-purine] | >10
26 | CCn1c(-c2cnc(C)nc2)nc2c(O[C@H]3CCN(C(=O)C4CC4)C3)ncnc21 [Compound 2-107, 6-{[(3S)-1-(cyclopropylcarbonyl)pyrrolidin-3-yl]oxy}-9-ethyl-8-(2-methylpyrimidin-5-yl)-9H-purine] | >10
27 | CCn1c(-c2cnc(C)nc2)nc2c(O[C@H]3CCN(C(=O)C4CC4C)C3)ncnc21 (stereo partly drawn) [Compound 2-108, 9-ethyl-6-({(3S)-1-[(2-methylcyclopropyl)carbonyl]pyrrolidin-3-yl}oxy)-8-(2-methylpyrimidin-5-yl)-9H-purine] | >10
28 | CCn1c(-c2cnc(C)nc2)nc2c(O[C@H]3CCN(C(=O)c4ccn(C)n4)C3)ncnc21 [Compound 2-109, 9-ethyl-6-({(3S)-1-[(1-methyl-1H-pyrazol-3-yl)carbonyl]pyrrolidin-3-yl}oxy)-8-(2-methylpyrimidin-5-yl)-9H-purine] | >10
29 | CCn1c(-c2cnc(C)nc2)nc2c(O[C@H]3CCN(C(=O)[C@H]4C[C@H]5CC[C@@H]4C5)C3)ncnc21 [Compound 2-110, 6-({(3S)-1-[(1R,2S,4S)-bicyclo[2.2.1]hept-2-ylcarbonyl]pyrrolidin-3-yl}oxy)-9-ethyl-8-(2-methylpyrimidin-5-yl)-9H-purine] | >10
30 | CCn1c(-c2cnc(C)nc2)nc2c(O[C@H]3CCN(C(=O)[C@@H](N)C(C)C)C3)ncnc21 [Compound 2-111, (2S)-1-[(3S)-3-{[9-ethyl-8-(2-methylpyrimidin-5-yl)-9H-purin-6-yl]oxy}pyrrolidin-1-yl]-3-methyl-1-oxobutan-2-amine] | >10
31 | CCn1c(-c2cnc(C)nc2)nc2c(O[C@H]3CCN(C(=O)C4(N)CCC4)C3)ncnc21 [Compound 2-112, 1-{[(3S)-3-{[9-ethyl-8-(2-methylpyrimidin-5-yl)-9H-purin-6-yl]oxy}pyrrolidin-1-yl]carbonyl}cyclobutanamine] | >10
